# Key:
# [1] = system: BJ cells; experiment: MTS metabolic activity assay, BJ cells; format: cell-based; settings: Homo sapiens, 72 h, read-out: Cell metabolic activity (MTS), % of untreated control
# Procedure, shortened: (§1)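 24 h post-seeding → compounds, 72 h → MTS 3 h, light-protected → A590/A620. Untreated = 100%. BJ seeded at 2 × 10^3, others 5 × 10^3 cells/0.32 cm^2.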
# [2] = system: human breast carcinoma (MDA-MB-231); experiment: MTS metabolic activity assay, MDA-MB-231 cells; format: cell-based; settings: Homo sapiens, 72 h, read-out: Cell metabolic activity (MTS), % of untreated control; for viability at 10 µM: MDA-MB-231, 10 µM; for viability at 20 µM: MDA-MB-231, 20 µM; for viability at 50 µM: MDA-MB-231, 50 µM; for viability at 100 µM: MDA-MB-231, 100 µM; for viability at 200 µM: MDA-MB-231, 200 µM; for viability at 300 µM: MDA-MB-231, 300 µM; for viability at 500 µM: MDA-MB-231, 500 µM
# Procedure, shortened: as §1
# [3] = system: skin melanoma (SK-MEL-30); experiment: MTS metabolic activity assay, SK-MEL-30 cells; format: cell-based; settings: Homo sapiens, 72 h, read-out: Cell metabolic activity (MTS), % of untreated control; for viability at 10 µM: SK-MEL-30, 10 µM; for viability at 20 µM: SK-MEL-30, 20 µM; for viability at 50 µM: SK-MEL-30, 50 µM; for viability at 100 µM: SK-MEL-30, 100 µM; for viability at 200 µM: SK-MEL-30, 200 µM; for viability at 300 µM: SK-MEL-30, 300 µM; for viability at 500 µM: SK-MEL-30, 500 µM
# Procedure, shortened: as §1
# [4] = molecular target: T1, 11β-HSD1 (Homo sapiens, UniProt P28845); experiment: Inhibition of 11β-HSD1 (cortisone to cortisol, human liver microsomes, cortisol ELISA); format: biochemical; settings: for inhibition at 10 µM: 2.5 h, 37 °C
# T1 construct: Human liver microsomes were used as a source of 11β-HSD1 enzyme; tissue XenoTech Lot No. 1410013; host or cells: pooled human liver microsomes, mixed gender
# Procedure, shortened: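 Human liver microsomal conversion of cortisone to cortisol, incubated 2.5 h at 37 °C and stopped with 18β-glycyrrhetinic acid. Cortisol was quantified by ELISA against inhibitor-free controls.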
# [5] = system: glioma (U-118 MG); experiment: MTS metabolic activity assay, U-118 MG cells; format: cell-based; settings: 72 h; for viability at 10 µM / viability at 20 µM / viability at 50 µM / viability at 100 µM / viability at 200 µM / viability at 300 µM / viability at 500 µM: Homo sapiens, U-118-MG, U118-MG, read-out: Cell metabolic activity (MTS), % of untreated control
# Procedure, shortened: as §1
# [6] = system: human pancreatic carcinoma (PANC-1); experiment: MTS metabolic activity assay, PANC-1 cells; format: cell-based; settings: Homo sapiens, 72 h, read-out: Cell metabolic activity (MTS), % of untreated control; for viability at 10 µM: PANC-1, 10 µM; for viability at 20 µM: PANC-1, 20 µM; for viability at 50 µM: PANC-1, 50 µM; for viability at 100 µM: PANC-1, 100 µM; for viability at 200 µM: PANC-1, 200 µM; for viability at 300 µM: PANC-1, 300 µM; for viability at 500 µM: PANC-1, 500 µM
# Procedure, shortened: as §1
# [7] = molecular target: T2, 11β-HSD2 (Homo sapiens, UniProt P80365); experiment: Inhibition of 11β-HSD2 (cortisol to cortisone, human microsomes, cortisol ELISA); format: biochemical; settings: 2.5 h, 37 °C
# T2 construct: Human liver microsomes were used as a source of 11β-HSD2 enzyme; tissue XenoTech Lot No. 1710160; host or cells: human kidney microsomes, mixed gender (method text says human liver microsomes)
# T2 sequence (P80365 1-405): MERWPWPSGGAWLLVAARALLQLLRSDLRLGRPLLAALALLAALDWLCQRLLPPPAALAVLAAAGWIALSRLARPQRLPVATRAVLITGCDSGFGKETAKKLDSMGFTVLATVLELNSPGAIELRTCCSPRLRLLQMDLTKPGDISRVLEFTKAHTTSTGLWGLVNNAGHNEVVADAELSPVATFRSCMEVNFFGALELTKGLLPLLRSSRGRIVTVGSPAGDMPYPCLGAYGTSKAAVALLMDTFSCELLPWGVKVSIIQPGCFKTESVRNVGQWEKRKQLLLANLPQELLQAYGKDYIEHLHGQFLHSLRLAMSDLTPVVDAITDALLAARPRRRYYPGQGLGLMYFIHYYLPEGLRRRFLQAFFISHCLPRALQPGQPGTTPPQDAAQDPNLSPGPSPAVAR
# Experimental: The resulting solution with a final volume of 100 µL was incubated for 2.5 h at 37 °C. […] The level of unreacted cortisol was measured by a commercially available ELISA kit.
# [8] = system: human colon carcinoma (Caco-2); experiment: MTS metabolic activity assay, Caco-2 cells; format: cell-based; settings: Homo sapiens, 72 h, read-out: Cell metabolic activity (MTS), % of untreated control; for viability at 10 µM: Caco-2, 10 µM; for viability at 20 µM: Caco-2, 20 µM; for viability at 50 µM: Caco-2, 50 µM; for viability at 100 µM: Caco-2, 100 µM; for viability at 200 µM: Caco-2, 200 µM; for viability at 300 µM: Caco-2, 300 µM; for viability at 500 µM: Caco-2, 500 µM
# Procedure, shortened: as §1
# T1 sequence (P28845 whole entry): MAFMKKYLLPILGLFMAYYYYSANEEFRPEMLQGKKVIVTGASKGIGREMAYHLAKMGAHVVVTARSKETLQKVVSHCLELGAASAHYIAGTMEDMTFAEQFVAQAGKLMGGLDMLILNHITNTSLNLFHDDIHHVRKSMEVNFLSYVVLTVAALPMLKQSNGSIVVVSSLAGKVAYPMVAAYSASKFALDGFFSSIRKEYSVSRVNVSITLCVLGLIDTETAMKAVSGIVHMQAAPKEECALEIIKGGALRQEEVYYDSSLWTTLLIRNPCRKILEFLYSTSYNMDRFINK
structure (smiles),measurement,setting,value
"CC(C)C1SC(NC2CCCC2)=NC1=O (stereo not shown) [Compound 3d, 2-(cyclopentylamino)-5-isopropylthiazol-4(5H)-one]",viability at 10 µM,[1],109%
same,viability at 20 µM,[1],106%
same,viability at 50 µM,[1],109%
same,viability at 100 µM,[1],110%
same,viability at 200 µM,[1],116%
same,viability at 300 µM,[1],118%
same,viability at 500 µM,[1],118%
same,viability at 10 µM,[2],92.8%
same,viability at 20 µM,[2],91.2%
same,viability at 50 µM,[2],95.5%
same,viability at 100 µM,[2],94.4%
same,viability at 200 µM,[2],86.6%
same,viability at 300 µM,[2],81.8%
same,viability at 500 µM,[2],57.6%
same,viability at 10 µM,[3],97.2%
same,viability at 20 µM,[3],97.1%
same,viability at 50 µM,[3],97.7%
same,viability at 100 µM,[3],102%
same,viability at 200 µM,[3],92.3%
same,viability at 300 µM,[3],78.2%
same,viability at 500 µM,[3],59.4%
same,IC50,[4],460 ± 70 nM
same,inhibition at 10 µM,[4],82.9 ± 2.62%
same,viability at 10 µM,[5],118%
same,viability at 20 µM,[5],111%
same,viability at 50 µM,[5],114%
same,viability at 100 µM,[5],112%
same,viability at 200 µM,[5],114%
same,viability at 300 µM,[5],115%
same,viability at 500 µM,[5],120%
same,highest increase in proliferation (cell metabolic activity),"[5]; U-118 MG, range given for the named substances together",115 to 144%
same,viability at 10 µM,[6],107%
same,viability at 20 µM,[6],103%
same,viability at 50 µM,[6],105%
same,viability at 100 µM,[6],116%
same,viability at 200 µM,[6],113%
same,viability at 300 µM,[6],119%
same,viability at 500 µM,[6],118%
same,inhibition at 10 µM,[7],38.6 ± 3.69%
same,viability at 10 µM,[8],88.8%
same,viability at 20 µM,[8],82.8%
same,viability at 50 µM,[8],90.8%
same,viability at 100 µM,[8],83.1%
same,viability at 200 µM,[8],84.8%
same,viability at 300 µM,[8],85.3%
same,viability at 500 µM,[8],70.1%
"CC1(C)SC(NC2CCCC2)=NC1=O [Compound 3e, 2-(cyclopentylamino)-5,5-dimethylthiazol-4(5H)-one]",viability at 10 µM,[1],107%
same,viability at 20 µM,[1],109%
same,viability at 50 µM,[1],112%
same,viability at 100 µM,[1],114%
same,viability at 200 µM,[1],117%
same,viability at 300 µM,[1],119%
same,viability at 500 µM,[1],108%
same,viability at 10 µM,[2],96.3%
same,viability at 20 µM,[2],100%
same,viability at 50 µM,[2],103%
same,viability at 100 µM,[2],95.7%
same,viability at 200 µM,[2],93.7%
same,viability at 300 µM,[2],90.6%
same,viability at 500 µM,[2],85.2%
same,viability at 10 µM,[3],102%
same,viability at 20 µM,[3],100%
same,viability at 50 µM,[3],103%
same,viability at 100 µM,[3],106%
same,viability at 200 µM,[3],106%
same,viability at 300 µM,[3],104%
same,viability at 500 µM,[3],104%
same,IC50,[4],4400 ± 150 nM
same,inhibition at 10 µM,[4],53.2 ± 5.22%
same,viability at 10 µM,[5],110%
same,viability at 20 µM,[5],110%
same,viability at 50 µM,[5],116%
same,viability at 100 µM,[5],111%
same,viability at 200 µM,[5],112%
same,viability at 300 µM,[5],109%
same,viability at 500 µM,[5],106%
same,viability at 10 µM,[6],110%
same,viability at 20 µM,[6],101%
same,viability at 50 µM,[6],110%
same,viability at 100 µM,[6],112%
same,viability at 200 µM,[6],120%
same,viability at 300 µM,[6],122%
same,viability at 500 µM,[6],127%
same,inhibition at 10 µM,[7],36.6 ± 1.5%
same,viability at 10 µM,[8],99.9%
same,viability at 20 µM,[8],86.5%
same,viability at 50 µM,[8],86.7%
same,viability at 100 µM,[8],83.4%
same,viability at 200 µM,[8],80.2%
same,viability at 300 µM,[8],75.6%
same,viability at 500 µM,[8],64.1%

# From publication PMC10139140, “Synthesis of Novel 2-(Cyclopentylamino)thiazol-4(5H)-one Derivatives with Potential Anticancer, Antioxidant, and 11β-HSD Inhibitory Activities” (International Journal of Molecular Sciences, 2023)
